Results published in US7709471B2, “Compounds” (AstraZeneca AB, priority 2006, dated 2010).

Key:
recombinant Plk1 = recombinant Plk1 (Homo sapiens, UniProt P53350); assay: In Vitro Plk1 Enzyme Assay (SPA, GST-Cdc25C phosphorylation); format: biochemical; conditions: ATP 64 nM, 90 minutes, read-out: IC50 (Plk1 enzyme inhibition)
[1] = tested on: human colon tumour cell line HT29; assay: Cellular Assay (phosphohistone H3 Ser10 mitotic marker, HT29); format: cell-based; conditions: HT-29, 24 h, HT29 cells, read-out: IC50 (cellular assay, phosphohistone H3)
Protocol: Chromosome condensation in mitosis is accompanied by phosphorylation of histone H3 on serine 10.
After 24 hours, cells were fixed in 3.7% (v/v) formaldehyde then permeabilised and blocked for 10 minutes in 100 μl 0.5% (v/v) Triton X-100, 1% (w/v) bovine serum albumin (BSA) in phosphate buffered saline (PBS). […] The raw assay data were analysed by non-linear regression analysis and used to determine an IC50 value for each compound.

Sequence of recombinant Plk1 (P53350 whole entry): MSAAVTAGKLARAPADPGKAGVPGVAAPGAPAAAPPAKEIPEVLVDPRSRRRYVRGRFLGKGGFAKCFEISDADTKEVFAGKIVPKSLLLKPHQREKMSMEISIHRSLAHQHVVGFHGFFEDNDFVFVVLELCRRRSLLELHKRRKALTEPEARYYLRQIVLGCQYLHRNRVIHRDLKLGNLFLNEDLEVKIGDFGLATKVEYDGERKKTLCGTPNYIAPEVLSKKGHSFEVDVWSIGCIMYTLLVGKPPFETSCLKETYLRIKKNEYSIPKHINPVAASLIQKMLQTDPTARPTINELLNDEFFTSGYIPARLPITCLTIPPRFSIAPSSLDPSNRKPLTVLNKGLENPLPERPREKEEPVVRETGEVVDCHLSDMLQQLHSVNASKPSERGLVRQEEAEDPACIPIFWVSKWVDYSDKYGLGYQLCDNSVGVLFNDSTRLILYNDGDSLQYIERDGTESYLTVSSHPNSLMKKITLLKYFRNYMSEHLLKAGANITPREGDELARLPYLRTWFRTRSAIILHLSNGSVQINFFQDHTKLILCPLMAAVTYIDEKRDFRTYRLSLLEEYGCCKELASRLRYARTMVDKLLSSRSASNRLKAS

CCN1CC[C@@H](NC(=O)c2ccc(Nc3ncc4c(n3)N(C3CCCC3)CCC(=O)N4C)c(OC)c2)C1 [Example 326, 4-[(2-cyclopentyl-6-methyl-5-oxo-2,6,9,11-tetrazabicyclo[5.4.0]undeca-7,9,11-trien-10-yl)amino]-N-[(3R)-1-ethylpyrrolidin-3-yl]-3-methoxy-benzamide]
IC50 (recombinant Plk1): < 300 nM
IC50 [1]: < 300 nM

CCCN1CC[C@@H](NC(=O)c2ccc(Nc3ncc4c(n3)N(C3CCCC3)CCC(=O)N4C)c(OC)c2)C1 [Example 327, 4-[(2-cyclopentyl-6-methyl-5-oxo-2,6,9,11-tetrazabicyclo[5.4.0]undeca-7,9,11-trien-10-yl)amino]-3-methoxy-N-[(3R)-1-propylpyrrolidin-3-yl]benzamide]
IC50 (recombinant Plk1): < 300 nM
IC50 [1]: < 300 nM

COCCN1CC[C@@H](NC(=O)c2ccc(Nc3ncc4c(n3)N(C3CCCC3)CCC(=O)N4C)c(OC)c2)C1 [Example 328, 4-[(2-cyclopentyl-6-methyl-5-oxo-2,6,9,11-tetrazabicyclo[5.4.0]undeca-7,9,11-trien-10-yl)amino]-3-methoxy-N-[(3R)-1-(2-methoxyethyl)pyrrolidin-3-yl]benzamide]
IC50 (recombinant Plk1): < 300 nM
IC50 [1]: < 300 nM

CCN1CCC(NC(=O)c2ccc(Nc3ncc4c(n3)N(C3CCCC3)CC3(CC3)C(=O)N4C)c(Cl)c2)CC1 [Example 382, 3-chloro-4-(9′-cyclopentyl-5′-methyl-6′-oxo-5′,6′,8′,9′-tetrahydrospiro[cyclopropane-1,7′-pyrimido[5,4-b][1,4]diazepine]-2′-ylamino)-N-(1-ethylpiperidin-4-yl)benzamide]
IC50 (recombinant Plk1): < 300 nM
IC50 [1]: < 300 nM

CCN1CCC(NC(=O)c2ccc(Nc3ncc4c(n3)N(C3CCCC3)CC3(CC3)C(=O)N4C)c(OC)c2)CC1 [Example 383, 4-(9′-cyclopentyl-5′-methyl-6′-oxo-5′,6′,8′,9′-tetrahydrospiro[cyclopropane-1,7′-pyrimido[5,4-b][1,4]diazepine]-2′-ylamino)-N-(1-ethyl-4-piperidyl)-3-methoxy-benzamide]
IC50 (recombinant Plk1): < 1000 nM
IC50 [1]: < 300 nM

COc1cc(C(=O)NC2C[C@H]3CCC[C@@H](C2)N3C)ccc1Nc1ncc2c(n1)N(C1CCCC1)CC1(CC1)C(=O)N2C (stereo partly drawn) [Example 385, 4-(9′-cyclopentyl-5′-methyl-6′-oxo-5′,6′,8′,9′-tetrahydrospiro[cyclopropane-1,7′-pyrimido[5,4-b][1,4]diazepine]-2′-ylamino)-3-methoxy-N-[(1S,5R)-9-methyl-9-azabicyclo[3.3.1]non-7-yl]benzamide]
IC50 (recombinant Plk1): < 300 nM
IC50 [1]: < 300 nM

COc1cc(C(=O)NCC(C)(C)CN(C)C)ccc1Nc1ncc2c(n1)N(C1CCCC1)CC1(CC1)C(=O)N2C [Example 386, 4-(9′-cyclopentyl-5′-methyl-6′-oxo-5′,6′,8′,9′-tetrahydrospiro[cyclopropane-1,7′-pyrimido[5,4-b][1,4]diazepine]-2′-ylamino)-N-(3-dimethylamino-2,2-dimethyl-propyl)-3-methoxy-benzamide]
IC50 (recombinant Plk1): < 300 nM
IC50 [1]: < 300 nM

COc1cc(C(=O)NCCN(C)C)ccc1Nc1ncc2c(n1)N(C1CCCC1)CC1(CC1)C(=O)N2C [Example 387, 4-(9′-cyclopentyl-5′-methyl-6′-oxo-5′,6′,8′,9′-tetrahydrospiro[cyclopropane-1,7′-pyrimido[5,4-b][1,4]diazepine]-2′-ylamino)-N-(2-dimethylaminoethyl)-3-methoxy-benzamide]
IC50 (recombinant Plk1): < 300 nM
IC50 [1]: < 300 nM

COc1cc(C(=O)NC2CCN(C)CC2)ccc1Nc1ncc2c(n1)N(C1CCCC1=O)CCC(=O)N2C (centres unmarked) [Example 410, 3-methoxy-4-[[6-methyl-5-oxo-2-(2-oxocyclopentyl)-2,6,9,11-tetrazabicyclo[5.4.0]undeca-7,9,11-trien-10-yl]amino]-N-(1-methyl-4-piperidyl)benzamide]
IC50 (recombinant Plk1): < 1000 nM
IC50 [1]: < 30000 nM

COc1cc(C(=O)NC2CCN(C)CC2)ccc1Nc1ncc2c(n1)N(C1CCCCC1)CC1(CC1)C(=O)N2C [Example 430, 4-(9′-cyclohexyl-5′-methyl-6′-oxo-5′,6′,8′,9′-tetrahydrospiro[cyclopropane-1,7′-pyrimido[5,4-b][1,4]diazepine]-2′-ylamino)-3-methoxy-N-(1-methyl-4-piperidyl)benzamide]
IC50 (recombinant Plk1): < 300 nM
IC50 [1]: < 300 nM

COc1cc(C(=O)NCCCN(C)C)ccc1Nc1ncc2c(n1)N(C1CCCCC1)CC1(CC1)C(=O)N2C [Example 431, 4-(9′-cyclohexyl-5′-methyl-6′-oxo-5′,6′,8′,9′-tetrahydrospiro[cyclopropane-1,7′-pyrimido[5,4-b][1,4]diazepine]-2′-ylamino)-N-(3-dimethylaminopropyl)-3-methoxy-benzamide]
IC50 (recombinant Plk1): < 300 nM
IC50 [1]: < 300 nM

COc1cc(C(=O)NC2C[C@H]3CCC[C@@H](C2)N3C)ccc1Nc1ncc2c(n1)N(C1CCCCC1)CC1(CC1)C(=O)N2C (stereo partly drawn) [Example 432, 4-(9′-cyclohexyl-5′-methyl-6′-oxo-5′,6′,8′,9′-tetrahydrospiro[cyclopropane-1,7′-pyrimido[5,4-b][1,4]diazepine]-2′-ylamino)-3-methoxy-N-[(1S,5R)-9-methyl-9-azabicyclo[3.3.1]non-7-yl]benzamide]
IC50 (recombinant Plk1): < 300 nM
IC50 [1]: < 300 nM

CCN1CCC(NC(=O)c2ccc(Nc3ncc4c(n3)N(C3CCCCC3)CC3(CC3)C(=O)N4C)c(OC)c2)CC1 [Example 433, 4-(9′-cyclohexyl-5′-methyl-6′-oxo-5′,6′,8′,9′-tetrahydrospiro[cyclopropane-1,7′-pyrimido[5,4-b][1,4]diazepine]-2′-ylamino)-N-(1-ethyl-4-piperidyl)-3-methoxy-benzamide]
IC50 (recombinant Plk1): < 100000 nM
IC50 [1]: < 300 nM
